Assay results: US12286435B2, “Compound having benzo seven-membered ring structure, preparation method therefor, and use thereof” (BIONNA (BEIJING) MEDICAL TECHNOLOGY CO., LTD., priority 2019, dated 2025)
Several values for one entry are separate records, joined by “and”; a condition that tells them apart may be missing. Identical values can stand only once. Like-named read-outs stand apart in the source and are kept apart here.

Assays:
BRD4 BD1 protein = BRD4 BD1 protein (Homo sapiens (Human), UniProt O60885); assay: Fluorescence polarization binding affinity (Ki) with BRD4 BD1 protein
BRD4 BD2 protein = BRD4 BD2 protein (Homo sapiens (Human), UniProt O60885); assay: Fluorescence polarization binding affinity (Ki) with BRD4 BD2 protein
[1] = fluorescence polarization, Ki calculated from IC50

Row | Molecule | Ki (BRD4 BD1 protein; [1]) [µM] | Ki (BRD4 BD2 protein; [1]) | Ki (BRD4 BD1 protein) [µM] | Ki (BRD4 BD2 protein) [µM]
1 | Cc1nnn2c1-c1ccc(C3=CCNCC3)cc1C(Nc1ccc(CC#N)cc1)CC2 (stereo not drawn) [RC73, 2-(4-((1-methyl-9-(1,2,3,6-tetrahydropyridin-4-yl)-6,7-dihydro-5H-benzo[c][1,2,3]triazolo[1,5-a]azepin-7-yl)amino)phenyl)acetonitrile 2,2,2-trifluoroacetate] | 2.37 | 0.139 µM | – | –
2 | Cc1nnn2c1-c1ccc(C3=CCNCC3)cc1C(Nc1ccccc1CC#N)CC2 (stereo not drawn) [RC82, 2-(2-((1-methyl-9-(1,2,3,6-tetrahydropyridin-4-yl)-6,7-dihydro-5H-benzo[c][1,2,3]triazolo[1,5-a]azepin-7-yl)amino)phenyl) acetonitrile 2,2,2-trifluoroacetate] | 2.37 | 1.52 µM | – | –
3 | Cc1nnn2c1-c1ccc(C3=CCNCC3)cc1C(Nc1ccccc1C#N)CC2 (stereo not drawn) [RC116, 2-((1-methyl-9-(1,2,3,6-tetrahydropyridin-4-yl)-6,7-dihydro-5H-benzo[c][1,2,3]triazolo[1,5-a]azepin-7-yl)amino)benzonitrile 2,2,2-trifluoroacetate] | 1 | 0.115 µM | – | –
4 | Cc1nnn2c1-c1ccc(C3=CCN(C)CC3)cc1C(Nc1ccccc1Cl)CC2 (stereo not drawn) [RD06, N-(2-chlorophenyl)-1-methyl-9-(1-methyl-1,2,3,6-tetrahydropyridin-4-yl)-6,7-dihydro-5H-benzo[c][1,2,3]triazolo[1,5-a]azepin-7-amine 2,2,2-trifluoroacetate] | 1.03 | 0.0564 µM | – | –
5 | Cc1nnn2c1-c1ccc(C3=CCNCC3)cc1C(Nc1cccc(CO)c1)CC2 (stereo not drawn) [RD21, (3-((1-methyl-9-(1,2,3,6-tetrahydropyridin-4-yl)-6,7-dihydro-5H-benzo[c][1,2,3]triazolo[1,5-a]azepin-7-yl)amino)phenyl)methanol 2,2,2-trifluoroacetate] | 1.53 | 0.0904 µM | – | –
6 | Cc1nnn2c1-c1ccc(C3=CCN(C)CC3)cc1C(Nc1ccc(CO)cc1)CC2 (stereo not drawn) [RD41, (4-((1-methyl-9-(1-methyl-1,2,3,6-tetrahydropyridin-4-yl)-6,7-dihydro-5H-benzo[c][1,2,3]triazolo[1,5-a]azepin-7-yl)amino)pheny 1)methanol 2,2,2-trifluoroacetate] | 1.55 | 0.0551 µM | – | –
7 | CCN1CC=C(c2ccc3c(c2)C(Nc2cccc(Cl)c2F)CCn2nnc(C)c2-3)CC1 (stereo not drawn) [RD115, N-(3-chloro-2-fluorophenyl)-9-(1-ethyl-1,2,3,6-tetrahydropyridin-4-yl)-1-methyl-6,7-dihydro-5H-benzo[c][1,2,3]triazolo[1,5-a]azepin-7-amine 2,2,2-trifluoroacetate] | 1.13 | 0.0591 µM | – | –
8 | CCN1CC=C(c2ccc3c(c2)C(Nc2ccc(F)c(Cl)c2)CCn2nnc(C)c2-3)CC1 (stereo not drawn) [RD121, N-(3-chloro-4-fluorophenyl)-9-(1-ethyl-1,2,3,6-tetrahydropyridin-4-yl)-1-methyl-6,7-dihydro-5H-benzo[c][1,2,3]triazolo[1,5-a]azepin-7-amine 2,2,2-trifluoroacetate] | – | – | 0.788 | 0.0318
9 | CCN1CC=C(c2ccc3c(c2)C(Nc2cc(Cl)ccc2F)CCn2nnc(C)c2-3)CC1 (stereo not drawn) [RD123, N-(5-chloro-2-fluorophenyl)-9-(1-ethyl-1,2,3,6-tetrahydropyridin-4-yl)-1-methyl-6,7-dihydro-5H-benzo[c][1,2,3]triazolo[1,5-a]azepin-7-amine 2,2,2-trifluoroacetate] | – | – | 1.09 | 0.0408
10 | CCN1CCC(c2ccc3c(c2)C(Nc2cccc(Cl)c2)CCn2nnc(C)c2-3)CC1 (stereo not drawn) [RD142, N-(3-chlorophenyl)-9-(1-ethylpiperidin-4-yl)-1-methyl-6,7-dihydro-5H-benzo[c][1,2,3]triazolo[1,5-a]azepin-7-amine 2,2,2-trifluoroacetate] | 4.41 | 0.193 µM | – | –
11 | Cc1nnn2c1-c1ccc(C3=CCN(C4CCCCC4)CC3)cc1C(Nc1cccc(Cl)c1F)CC2 (stereo not drawn) [RD178, N-(3-chloro-2-fluorophenyl)-9-(1-cyclohexyl-1,2,3,6-tetrahydropyridin-4-yl)-1-methyl-6,7-dihydro-5H-benzo[c][1,2,3]triazolo[1,5-a]azepin-7-amine 2,2,2-trifluoroacetate] | – | – | 1.26 | 0.0327
12 | Cc1nnn2c1-c1ccc(C3=CCN(C4CCCC4)CC3)cc1C(Nc1cccc(Cl)c1F)CC2 (stereo not drawn) [RD179, N-(3-chloro-2-fluorophenyl)-9-(1-cyclopentyl-1,2,3,6-tetrahydropyridin-4-yl)-1-methyl-6,7-dihydro-5H-benzo[c][1,2,3]triazolol[1,5-a]azepin-7-amine 2,2,2-trifluoroacetate] | 2.81 | 0.0326 µM | – | –
13 | CC(=O)N1CC=C(c2ccc3c(c2)C(Nc2cccc(Cl)c2F)CCn2nnc(C)c2-3)CC1 (stereo not drawn) [RD180, 1-(4-(7-((3-chloro-2-fluoro-phenyl)amino)-1-methyl-6,7-dihydro-5H-benzo[c][1,2,3]triazolo[1,5-a]azepin-9-yl)-3,6-dihydropyridin-1 (2H)-yl)ethan-1-one] | 0.052 | 0.0121 µM | – | –
14 | Cc1nnn2c1-c1ccc(C3=CCN(C(C)C)CC3)cc1[C@@H](Nc1cccc(Cl)c1)CC2 [RE10 (S), (7S)—N-(3-chlorophenyl)-9-(1-isopropyl-1,2,3,6-tetrahydropyridin-4-yl)-1-methyl-6,7-dihydro-5H-benzo[c][1,2,3]triazolo[1,5-a]azepin-7-amine 2,2,2-trifluoroacetate] | 0.884 | 0.177 µM | – | –
15 | Cc1nnn2c1-c1ccc(C3=CCN(C(C)C)CC3)cc1C(Nc1cccc(Cl)c1F)CC2 (stereo not drawn) [RE29, N-(3-chloro-2-fluorophenyl)-9-(1-isopropyl-1,2,3,6-tetrahydropyridin-4-yl)-1-methyl-6,7-dihydro-5H-benzo[c][1,2,3]triazolo[1,5-a]azepin-7-amine 2,2,2-trifluoroacetate] | 1.55 | 0.0658 µM | – | –
16 | Cc1nnn2c1-c1ccc(C3=CCN(C4CCC4)CC3)cc1C(Nc1cccc(Cl)c1F)CC2 (stereo not drawn) [RE30, N-(3-chloro-2-fluorophenyl)-9-(1-cyclobutyl-1,2,3,6-tetrahydropyridin-4-yl)-1-methyl-6,7-dihydro-5H-benzo[c][1,2,3]triazolo[1,5-a]azepin-7-amine 2,2,2-trifluoroacetate] | – | – | 0.413 | 0.0302
17 | Cc1nnn2c1-c1ccc(-c3cnn(C)c3)cc1[C@H](Nc1cccc(Cl)c1)CC2 [RE124, (R)—N-(3-chlorophenyl)-1-methyl-9-(1-methyl-1H-pyrazol-4-yl)-6,7-dihydro-5H-benzo[c][1,2,3]triazolo[1,5-a]azepin-7-amine] | 0.00992 ± 0.00336 | < 0.001 µM | – | –
18 | Cc1nnn2c1-c1ccc(-c3cnn(C)c3)cc1[C@H](Nc1ccc(Cl)cc1)CC2 [RE127, (R)—N-(4-chlorophenyl)-1-methyl-9-(1-methyl-1H-pyrazo1-4-yl)-6,7-dihydro-5H-benzo[c][1,2,3]triazolo[1,5-a]azepin-7-amine] | 0.00415 ± 0.00021 | < 0.001 µM | – | –
19 | CCn1cc(-c2ccc3c(c2)[C@H](Nc2ccc(Cl)cc2)CCn2nnc(C)c2-3)cn1 [RE136, (R)—N-(4-chlorophenyl)-9-(1-ethyl-1H-pyrazol-4-yl)-1-methyl-6,7-dihydro-5H-benzo[c][1,2,3]triazolo[1,5-a]azepin-7-amine] | 0.00266 ± 0.00037 | < 0.001 µM | – | –
20 | Cc1nnn2c1-c1ccc(C3=CCNCC3)cc1C(Nc1cccc3[nH]ccc13)CC2 (stereo not drawn) [WA78, 2,2,2-trifluoroacetate] | 0.281 | 0.0198 µM | – | –
21 | Cc1nnn2c1-c1ccc(C3=CCNCC3)cc1C(Nc1ccc3[nH]ccc3c1)CC2 (stereo not drawn) [WA82, N-(1H-indo1-5-yl)-1-methyl-9-(1,2,3,6-tetrahydropyridin-4-yl)-6,7-dihydro-5H-benzo[c][1,2,3]triazolo[1,5-a]azepin-7-amine 2,2,2-trifluoroacetate] | 0.436 | 0.0536 µM | – | –
22 | Cc1nnn2c1-c1ccc(C3=CCNCC3)cc1C(Nc1ccc3cc[nH]c3c1)CC2 (stereo not drawn) [WA83, N-(1H-indo1-6-yl)-1-methyl-9-(1,2,3,6-tetrahydropyridin-4-yl)-6,7-dihydro-5H-benzo[c][1,2,3]triazolo[1,5-a]azepin-7-amine 2,2,2-trifluoroacetate] | 0.431 | 0.0886 µM | – | –
23 | Cc1nnn2c1-c1ccc(C3=CCN(C4CCCC4)CC3)cc1C(Nc1ccc(F)c(Cl)c1)CC2 (stereo not drawn) [WYA10, N-(3-chloro-4-fluorophenyl)-9-(1-cyclopentyl-1,2,3,6-tetrahydropyridin-4-yl)-1-methyl-6,7-dihydro-5H-benzo[c][1,2,3]triazolo[1,5-a]azepin-7-amine 2,2,2-trifluoroacetate] | 0.719 | 0.0207 µM and 0.0474 µM | – | –
24 | N-(4-chlorophenyl)-9-(3,6-dihydro-2H-pyran-4-yl)-1-methyl-6,7-dihydro-5H-benzo[c][1,2,3]triazolo[1,5-a]azepin-7-amine [LD31] | – | – | 0.0391 | 0.0171
